≈ marks a conversion by molar mass, not a printed value.
Assays:
Format in all cases: functional
Streptococcus pneumoniae [1] = test: Antibacterial activity against Streptococcus pneumoniae by microdilution method
Streptococcus pneumoniae [2] = test: Antibacterial activity against Streptococcus pneumoniae assessed as susceptible isolates by microdilution method
Streptococcus pneumoniae [3] = test: Antibacterial activity against Streptococcus pneumoniae assessed as resistant isolates by microdilution method
Streptococcus pneumoniae [4] = test: Antibacterial activity against Streptococcus pneumoniae by microdilution method in presence of beta lactamase inhibitor clavulanic acid
Streptococcus pneumoniae [5] = test: Antibacterial activity against Streptococcus pneumoniae assessed as susceptible isolates by microdilution method in presence of beta lactamase inhibitor clavulanic acid
Streptococcus pneumoniae [6] = test: Antibacterial activity against Streptococcus pneumoniae assessed as resistant isolates by microdilution method in presence of beta lactamase inhibitor clavulanic acid
Streptococcus pneumoniae [7] = test: Antibacterial activity against multidrug resistant Streptococcus pneumoniae by microdilution method
Streptococcus pneumoniae [8] = test: Antibacterial activity against amoxicillin-clavulanic acid resistant Streptococcus pneumoniae by microdilution method
Streptococcus pneumoniae [9] = test: Antibacterial activity against Streptococcus pneumoniae ATCC 49619 by microdilution method
Streptococcus pneumoniae [10] = test: Antibacterial activity against azithromycin susceptible Streptococcus pneumoniae by microdilution method
Streptococcus pneumoniae [11] = test: Antibacterial activity against cotrimoxazole susceptible Streptococcus pneumoniae by microdilution method
Streptococcus pneumoniae [12] = test: Antibacterial activity against penicillin resistant Streptococcus pneumoniae by microdilution method
Streptococcus pneumoniae [13] = test: Antibacterial activity against penicillin susceptible Streptococcus pneumoniae by microdilution method
Streptococcus pneumoniae [14] = test: Antibacterial activity against cotrimoxazole resistant Streptococcus pneumoniae by microdilution method
Streptococcus pneumoniae [15] = test: Antibacterial activity against amoxicillin-clavulanic acid susceptible Streptococcus pneumoniae by microdilution method
Streptococcus pneumoniae [16] = test: Antibacterial activity against penicillin intermediate Streptococcus pneumoniae by microdilution method
Streptococcus pneumoniae [17] = test: Antibacterial activity against cotrimoxazole intermediate Streptococcus pneumoniae by microdilution method
Streptococcus pneumoniae [18] = test: Antibacterial activity against azithromycin resistant Streptococcus pneumoniae by microdilution method

COc1c(N2CCNC(C)C2)c(F)cc2c(=O)c(C(=O)O)cn(C3CC3)c12 (stereo not given) [GATIFLOXACIN]
MIC50 (Streptococcus pneumoniae [1]): 0.25 µg/mL (≈ 0.666 µM) | MIC90 (Streptococcus pneumoniae [1]): 0.25 µg/mL (≈ 0.666 µM) | Activity (Streptococcus pneumoniae [2]): 98.7% | Activity (Streptococcus pneumoniae [3]): 0.7%

CC1(C)S[C@@H]2[C@H](NC(=O)Cc3ccccc3)C(=O)N2[C@H]1C(=O)O [PENICILLIN G]
MIC50 (Streptococcus pneumoniae [1]): 0.25 µg/mL (≈ 0.748 µM) | MIC90 (Streptococcus pneumoniae [1]): 2 µg/mL (≈ 5.98 µM) | Activity (Streptococcus pneumoniae [2]): 41.7% | Activity (Streptococcus pneumoniae [3]): 38.4%

CC1(C)S[C@@H]2[C@H](NC(=O)[C@H](N)c3ccc(O)cc3)C(=O)N2[C@H]1C(=O)O [AMOXICILLIN]
MIC50 (Streptococcus pneumoniae [4]): 0.25 µg/mL | MIC90 (Streptococcus pneumoniae [4]): 4 µg/mL | MIC50 (Streptococcus pneumoniae [1]): 0.25 µg/mL (≈ 0.684 µM) | MIC90 (Streptococcus pneumoniae [1]): 4 µg/mL (≈ 10.9 µM) | Activity (Streptococcus pneumoniae [5]): 55% | Activity (Streptococcus pneumoniae [2]): 55% | Activity (Streptococcus pneumoniae [3]): 39.7% | Activity (Streptococcus pneumoniae [6]): 39.1%

CC[C@H]1OC(=O)[C@H](C)C(=O)[C@H](C)[C@@H](O[C@@H]2O[C@H](C)C[C@H](N(C)C)[C@H]2O)[C@](C)(OC)C[C@@H](C)C(=O)[C@H](C)[C@H]2N(CCCCn3cnc(-c4cccnc4)c3)C(=O)O[C@]12C [TELITHROMYCIN]
MIC90 (Streptococcus pneumoniae [1]): 0.5 µg/mL (≈ 0.616 µM) | Activity (Streptococcus pneumoniae [2]): 98% | Activity (Streptococcus pneumoniae [3]): 0.7%

COc1cc(Cc2cnc(N)nc2N)cc(OC)c1OC [TRIMETHOPRIM]
MIC50 (Streptococcus pneumoniae [1]): 4 µg/mL (≈ 13.8 µM) | MIC90 (Streptococcus pneumoniae [1]): > 32 µg/mL

COc1cc(Cc2cnc(N)nc2N)c2cc(Cc3c(C(=O)N(C)C)[nH]c4ccc(Cl)cc34)oc2c1OC
MIC50 (Streptococcus pneumoniae [7]): 0.12 µg/mL (≈ 0.224 µM) | MIC90 (Streptococcus pneumoniae [7]): 0.25 µg/mL (≈ 0.467 µM) | MIC50 (Streptococcus pneumoniae [8]): 0.06 µg/mL | MIC90 (Streptococcus pneumoniae [8]): 0.25 µg/mL | MIC (Streptococcus pneumoniae [9]): ≤ 0.015 µg/mL | MIC50 (Streptococcus pneumoniae [10]): ≤ 0.015 µg/mL | MIC90 (Streptococcus pneumoniae [10]): 0.12 µg/mL (≈ 0.224 µM) | MIC50 (Streptococcus pneumoniae [1]): 0.03 µg/mL (≈ 0.0561 µM) | MIC90 (Streptococcus pneumoniae [1]): 0.25 µg/mL (≈ 0.467 µM) | MIC50 (Streptococcus pneumoniae [11]): ≤ 0.015 µg/mL | MIC90 (Streptococcus pneumoniae [11]): 0.03 µg/mL (≈ 0.0561 µM) | MIC50 (Streptococcus pneumoniae [12]): 0.06 µg/mL (≈ 0.112 µM) | MIC90 (Streptococcus pneumoniae [12]): 0.25 µg/mL (≈ 0.467 µM) | MIC50 (Streptococcus pneumoniae [13]): ≤ 0.015 µg/mL | MIC90 (Streptococcus pneumoniae [13]): ≤ 0.015 µg/mL | MIC50 (Streptococcus pneumoniae [14]): 0.12 µg/mL (≈ 0.224 µM) | MIC90 (Streptococcus pneumoniae [14]): 0.25 µg/mL (≈ 0.467 µM) | MIC50 (Streptococcus pneumoniae [15]): ≤ 0.015 µg/mL | MIC90 (Streptococcus pneumoniae [15]): 0.06 µg/mL | MIC50 (Streptococcus pneumoniae [16]): 0.03 µg/mL (≈ 0.0561 µM) | MIC90 (Streptococcus pneumoniae [16]): 0.12 µg/mL (≈ 0.224 µM) | MIC50 (Streptococcus pneumoniae [17]): ≤ 0.015 µg/mL | MIC90 (Streptococcus pneumoniae [17]): 0.06 µg/mL (≈ 0.112 µM) | MIC50 (Streptococcus pneumoniae [18]): 0.06 µg/mL (≈ 0.112 µM) | MIC90 (Streptococcus pneumoniae [18]): 0.25 µg/mL (≈ 0.467 µM)

CC[C@H]1OC(=O)[C@H](C)[C@@H](O[C@H]2C[C@@](C)(OC)[C@@H](O)[C@H](C)O2)[C@H](C)[C@@H](O[C@@H]2O[C@H](C)C[C@H](N(C)C)[C@H]2O)[C@](C)(O)C[C@@H](C)CN(C)[C@H](C)[C@@H](O)[C@]1(C)O [AZITHROMYCIN]
MIC50 (Streptococcus pneumoniae [1]): 0.12 µg/mL (≈ 0.16 µM) | MIC90 (Streptococcus pneumoniae [1]): > 8 µg/mL | Activity (Streptococcus pneumoniae [2]): 62.3% | Activity (Streptococcus pneumoniae [3]): 37.7%
